Activity calls are given as the source filed them. The rule behind the calls is not given here.
Legend:
[1] = Toxicity in NOD/SCID mouse assessed as cytotoxicity in liver at 10 mg/kg, ip treated for 33 days by H&E staining analysis; type: organism-based; settings: in vivo, 792 h, time 33 day
MDA-MB-231 [2] = experiment: Antitumor activity against human MDA-MB-231 cells xenografted in NOD/SCID mouse assessed as increase in LC3B expression in tumor tissue at 5 to 10 mg/kg, ip treated for 33 days by immunohistochemical analysis; type: functional, organism-based; settings: dose 5-10 mg/kg, time 33.0 day
MDA-MB-468 [3] = experiment: Induction of cell cycle arrest in human MDA-MB-468 cells assessed as accumulation of cells at S phase at 2 uM measured after 24 hrs by flow cytometry (reference value: 46.9%); type: functional
MDA-MB-231 [4] = experiment: Induction of cell cycle arrest in human MDA-MB-231 cells assessed as accumulation of cells at G2 phase at 1 uM measured after 24 hrs by flow cytometry (reference value: 20.2%); type: functional
MDA-MB-231 [5] = experiment: Induction of apoptosis in human MDA-MB-231 cells assessed as increase in cleaved caspase 3 at 1 to 5 uM measured after 24 hrs by Western blot analysis; type: functional, cell-based; settings: dose 1-5 µM
MDA-MB-468 [6] = experiment: Induction of autophagy in human MDA-MB-468 cells assessed as elimination of p62 at 1 to 5 uM incubated for 24 hrs by Western blot analysis; type: functional, cell-based; settings: dose 1-5 µM
MDA-MB-231 [7] = experiment: Induction of cell cycle arrest in human MDA-MB-231 cells assessed as accumulation of cells at G1 phase at 1 uM measured after 24 hrs by flow cytometry (reference value: 47.7%); type: functional
MDA-MB-231 [8] = experiment: Antitumor activity against human MDA-MB-231 cells xenografted in NOD/SCID mouse assessed as decrease in Ki67 expression in tumor tissue at 5 to 10 mg/kg, ip treated for 33 days by immunohistochemical analysis; type: functional, organism-based; settings: dose 5-10 mg/kg, time 33.0 day
MCF7 = experiment: Cytotoxicity against human MCF7 cells assessed as reduction in cell viability incubated for 96 hrs by MTT method; type: functional, cell-based; settings: MCF7, 96 h
MDA-MB-468 [9] = experiment: Induction of cell cycle arrest in human MDA-MB-468 cells assessed as accumulation of cells at G1 phase at 2 uM measured after 24 hrs by flow cytometry (reference value: 26.6%); type: functional
[10] = target: Serine/threonine-protein kinase mTOR (Homo sapiens) (UniProt P42345); experiment: Inhibition of mTOR phosphorylation in human MDA-MB-231 cells measured after 24 hrs by Western blot analysis; type: cell-based; settings: dose 1-5 µM
MDA-MB-231 [11] = experiment: Induction of mitochondrial depolarization in human MDA-MB-231 cells assessed as aggregates at 1 uM in dark by JC10 staining based fluorescence microscopy (reference value: 94.4%); type: functional
MDA-MB-231 [12] = experiment: Induction of apoptosis in human MDA-MB-231 cells assessed as early apoptotic cells at 5 uM measured after 24 hrs by Annexin V/Propidium iodide stain based Flow cytometry (reference value: 3.34%); type: functional
MDA-MB-468 [13] = experiment: Induction of cell cycle arrest in human MDA-MB-468 cells assessed as accumulation of cells at S phase at 5 uM measured after 24 hrs by flow cytometry (reference value: 46.9%); type: functional
MDA-MB-231 [14] = experiment: Inhibition of Akt phosphorylation in human MDA-MB-231 cells measured after 24 hrs by Western blot analysis; type: cell-based
MDA-MB-468 [15] = experiment: Antitumor activity against human MDA-MB-468 cells xenografted in NOD/SCID mouse assessed as increase in LC3B expression in tumor tissue at 5 to 10 mg/kg, ip treated for 33 days by immunohistochemical analysis; type: functional, organism-based; settings: dose 5-10 mg/kg, time 33.0 day
MDA-MB-231 [16] = experiment: Induction of cell cycle arrest in human MDA-MB-231 cells assessed as accumulation of cells at G1 phase at 5 uM measured after 24 hrs by flow cytometry (reference value: 47.7%); type: functional
[17] = Toxicity in NOD/SCID mouse assessed as change in body weight at 5 to 10 mg/kg, ip treated for 33 days; type: organism-based; settings: in vivo, 792 h, dose 5-10 mg/kg, time 33 day
MDA-MB-468 [18] = experiment: Induction of cell cycle arrest in human MDA-MB-468 cells assessed as accumulation of cells at G2 phase at 5 uM measured after 24 hrs by flow cytometry (reference value: 26.5%); type: functional
MDA-MB-231 [19] = experiment: Induction of mitochondrial depolarization in human MDA-MB-231 cells assessed as aggregates at 5 uM in dark by JC10 staining based fluorescence microscopy (reference value: 94.4%); type: functional
MDA-MB-231 [20] = experiment: Induction of apoptosis in human MDA-MB-231 cells assessed as late apoptotic cells at 2 uM measured after 24 hrs by Annexin V/Propidium iodide stain based Flow cytometry (reference value: 2.78%); type: functional
[21] = target: RAC-alpha serine/threonine-protein kinase (Homo sapiens) (UniProt P31749); experiment: Binding affinity to Akt1 in human MDA-MB-468 cells assessed as shifted melting curve at 2 uM by CETSA assay; type: cell-based
Sequence of RAC-alpha serine/threonine-protein kinase (Homo sapiens) (P31749 whole entry): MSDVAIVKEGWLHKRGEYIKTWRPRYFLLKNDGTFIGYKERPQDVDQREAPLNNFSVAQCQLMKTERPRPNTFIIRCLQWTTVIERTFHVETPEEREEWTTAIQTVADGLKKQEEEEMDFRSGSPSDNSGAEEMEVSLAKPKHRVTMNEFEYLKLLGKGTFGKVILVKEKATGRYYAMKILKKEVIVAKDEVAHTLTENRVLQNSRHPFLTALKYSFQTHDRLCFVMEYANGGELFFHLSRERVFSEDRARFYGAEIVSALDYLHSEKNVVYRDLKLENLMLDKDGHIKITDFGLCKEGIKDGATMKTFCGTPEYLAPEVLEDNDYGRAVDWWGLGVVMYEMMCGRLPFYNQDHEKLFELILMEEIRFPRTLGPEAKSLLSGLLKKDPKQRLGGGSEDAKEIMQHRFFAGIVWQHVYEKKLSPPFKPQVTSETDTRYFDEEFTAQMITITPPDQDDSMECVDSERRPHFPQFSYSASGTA

MDA-MB-231 [22] = experiment: Induction of autophagy in human MDA-MB-231 cells assessed as cleaved PARP at 1 to 5 uM incubated for 24 hrs in presence of chloroquine by Western blot analysis relative to control; type: functional, cell-based; settings: dose 1-5 µM
MDA-MB-468 [23] = experiment: Induction of apoptosis in human MDA-MB-468 cells assessed as early apoptotic cells at 2 uM measured after 24 hrs by Annexin V/Propidium iodide stain based Flow cytometry (reference value: 7.98%); type: functional
MDA-MB-468 [24] = experiment: Induction of cell cycle arrest in human MDA-MB-468 cells assessed as accumulation of cells at S phase at 1 uM measured after 24 hrs by flow cytometry (reference value: 46.9%); type: functional
MDA-MB-468 [25] = experiment: Induction of mitochondrial depolarization in human MDA-MB-468 cells assessed as monomers at 2 uM in dark by JC10 staining based fluorescence microscopy (reference value: 8.4%); type: functional
MDA-MB-468 [26] = experiment: Induction of mitochondrial depolarization in human MDA-MB-468 cells assessed as monomers at 5 uM in dark by JC10 staining based fluorescence microscopy (reference value: 8.4%); type: functional
MDA-MB-231 [27] = experiment: Induction of apoptosis in human MDA-MB-231 cells assessed as early apoptotic cells at 2 uM measured after 24 hrs by Annexin V/Propidium iodide stain based Flow cytometry (reference value: 3.34%); type: functional
MDA-MB-231 [28] = experiment: Induction of apoptosis in human MDA-MB-231 cells assessed as late apoptotic cells at 5 uM measured after 24 hrs by Annexin V/Propidium iodide stain based Flow cytometry (reference value: 2.78%); type: functional
MDA-MB-468 [29] = experiment: Induction of mitochondrial depolarization in human MDA-MB-468 cells assessed as monomers at 1 uM in dark by JC10 staining based fluorescence microscopy (reference value: 8.4%); type: functional
MDA-MB-468 [30] = experiment: Antitumor activity against human MDA-MB-468 cells xenografted in NOD/SCID mouse assessed as decrease in CD31 expression in tumor tissue at 5 to 10 mg/kg, ip treated for 33 days by immunohistochemical analysis; type: functional, organism-based; settings: dose 5-10 mg/kg, time 33.0 day
MDA-MB-468 [31] = experiment: Induction of autophagy in human MDA-MB-468 cells assessed as increase in ATG7 expression at 1 to 5 uM incubated for 24 hrs by Western blot analysis; type: functional, cell-based; settings: dose 1-5 µM
[32] = Toxicity in NOD/SCID mouse assessed as cytotoxicity in lung at 10 mg/kg, ip treated for 33 days by H&E staining analysis; type: organism-based; settings: in vivo, 792 h, time 33 day

For `C=C1C(=O)C2=C[C@H]1CCC(=O)[C@]1(C)[C@H](O)CCC(C)(C)[C@H]1C[C@H]2O`, the Activity [1] was “Non-Toxic”, the Activity (MDA-MB-231 [2]) was “Active” and the Activity (MDA-MB-468 [3]) was 27.6%. For the same compound, the Activity (MDA-MB-231 [4]) was 29.2%, the Activity (MDA-MB-231 [5]) was “Active” and the Activity (MDA-MB-468 [6]) was “Active”. For the same compound, the Activity (MDA-MB-231 [7]) was 33.7%, the Activity (MDA-MB-231 [8]) was “Active” and the IC50 (MCF7) was 113 nM. The Activity (MDA-MB-468 [9]) was 14.3%, the inhibition [10] was “Active” and the Activity (MDA-MB-231 [11]) was 81.1%. The Activity (MDA-MB-231 [12]) was 18%, the Activity (MDA-MB-468 [13]) was 24.3% and the inhibition (MDA-MB-231 [14]) was “Active”. For the same compound, the Activity (MDA-MB-468 [15]) was “Active”, the Activity (MDA-MB-231 [16]) was 27.5% and the Activity [17] was “Non-Toxic”. It also gave an Activity (MDA-MB-468 [18]) of 59.6%, an Activity (MDA-MB-231 [19]) of 23.8% and an Activity (MDA-MB-231 [20]) of 13.6%. For the same compound, the Activity [21] was “Active”, the Activity (MDA-MB-231 [22]) was “inactive” and the Activity (MDA-MB-468 [23]) was 35.5%. It also gave an Activity (MDA-MB-468 [24]) of 27.9%, an Activity (MDA-MB-468 [25]) of 78.5% and an Activity (MDA-MB-468 [26]) of 86.6%. It also gave an Activity (MDA-MB-231 [27]) of 8.05%, an Activity (MDA-MB-231 [28]) of 28% and an Activity (MDA-MB-468 [29]) of 38.4%. The Activity (MDA-MB-468 [30]) was “Active”, the Activity (MDA-MB-468 [31]) was “Active” and the Activity [32] was “Non-Toxic”.
